# Entries after “also recorded” stand apart in the source; their conditions may differ.
# What was measured:
# MOLM-13 cells = experiment: Cellular proliferation assay (MTS), MOLM-13; assay type: cell-based; conditions: Homo sapiens, AML-FLT3-ITD (heterozygous), 72 h, mean±s.d. of three experiments
# Description: (§1) MOLM-13 cells were purchased from the Deutsche Sammlung von Microorganismen und Zellkulturen GmbH (Braunschweig, Germany). RS4;11, MV4-11, U937, and K562 cell lines were obtained from the American Type Culture Collection (ATCC, Manassas, VA, USA). […] HEK293T- and FLT3-transfected HEK293T cells were cultured in DMEM (Invitrogen) medium with 10% FBS.
# (§2) Proliferation assays were performed by seeding 10 000 cells per well in a 96-well culture plate. […] Cell viability was quantitated using the MTS method (Promega) according to the manufacturer's recommended protocol. The results were determined by measuring absorbance at 490 nm using a plate reader (Victor2; Perkin-Elmer).
# FLT3-WT = test system: FLT3-WT; set-up: method as in Shankar et al (2007); conditions: previously reported; ref Shankar et al (2007); read-out: IC50 for inhibition of FLT3-WT; cited from earlier work
# [1] = test system: MOLM-13 xenograft tumours; set-up: method as in Shankar et al, 2007; conditions: ref Shankar et al, 2007; cited from earlier work
# K562 cells = experiment: Cellular proliferation assay (MTS), K562; assay type: cell-based; conditions: Homo sapiens, CML-Bcr-Abl FLT3-negative, 72 h, mean±s.d. of three experiments
# Description: as §1, §2
# MV4-11 cells = experiment: Cellular proliferation assay (MTS), MV4-11; assay type: cell-based; conditions: Homo sapiens, AML-FLT3-ITD (homozygous), 72 h, mean±s.d. of three experiments
# Description: as §1, §2
# RS4;11 cells = experiment: Cellular proliferation assay (MTS), RS4;11; assay type: cell-based; conditions: Homo sapiens, RS4-11, 72 h, read-out: Proliferation GI50, RS4;11
# Description: as §1, §2
# U937 cells = experiment: Cellular proliferation assay (MTS), U937; assay type: cell-based; conditions: Homo sapiens, U-937, AML-FLT3-negative, 72 h, mean±s.d. of three experiments
# Description: as §1, §2
smiles,measurement,setting,value
Cc1ccc(F)c(NC(=O)Nc2ccc(-c3cccc4[nH]nc(N)c34)cc2)c1 [ABT-869],GI50,MOLM-13 cells,38 ± 14 nM
same,IC50,FLT3-WT,4 nM
same,Effect on MOLM-13 xenograft tumours,[1],unable to shrink the MOLM-13 xenograft tumours; also recorded: not able to produce regressions of tumours
same,GI50,K562 cells,> 20000 nM
same,GI50,MV4-11 cells,82 ± 17 nM
same,GI50,RS4;11 cells,9200 ± 2700 nM
same,GI50,U937 cells,> 18000 nM

# Reference: PMC3273346, “BPR1J-097, a novel FLT3 kinase inhibitor, exerts potent inhibitory activity against AML” (British Journal of Cancer, 2011)
